Measured values: the supplement of paper PMC4858399

Key:
Details in all cases: exposure time 48 h
[1] = system: Caenorhabditis elegans N2; experiment: lowest effective concentration for larval growth inhibition (size below effect threshold); higher = less potent
How it was run: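 Chemical exposure ran for 48 h at 20°C: 50 C. elegans N2 L1 larvae per 96-well in K-medium with killed bacteria, 1% DMSO and 0.5, 1, 5, 10, 50, 100 or 200 µM chemical. Extinction of each worm, read as size on the Biosort, was log-transformed and averaged by well. The lowest effective concentration is the first dose whose plate-adjusted mean size is below a fixed value and remains so at all higher doses; the value is 5.665.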

[2] = system: Caenorhabditis elegans N2; experiment: AC50 for larval growth inhibition (Hill fit); higher = less potent
How it was run: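 Worms were synchronised C. elegans N2 L1 larvae, 50 per well of a 96-well plate, kept 48 h at 20°C in K-medium with killed OP50, 1% DMSO and 0.5–200 µM chemical. Size was taken as COPAS Biosort extinction, log-transformed and averaged per well, using only wells with at least 10 worms. AC50 was estimated by a constrained Hill fit with weighted genetic-algorithm regression; values outside the range are censored.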

[3] = system: Caenorhabditis elegans N2; experiment: mean nematode size ln(EXT) after 48 h, plate-adjusted (DMSO control set to 6) (ln(EXT), control-adjusted); higher = larger nematodes / less growth inhibition
How it was run: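 C. elegans N2 larvae, synchronised at L1, grew for 48 h at 20°C in K-medium with killed OP50, 1% DMSO and 0.5–200 µM chemical. Mean size per well was derived from natural-logged Biosort extinction after a growth model removed debris. Adjustment across plates involved subtracting the vehicle control mean and adding 6.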

Structure (SMILES): CCN(Cc1c(F)cccc1Cl)c1c([N+](=O)[O-])cc(C(F)(F)F)cc1[N+](=O)[O-] [Flumetralin]
- lowest effective concentration [1]: 200 µM
- AC50 for larval growth inhibition [2]: 180 µM
- mean nematode size ln(EXT) (ln) ([3]; 0.5 µM): 6.16
- mean nematode size ln(EXT) (ln) ([3]; 1 µM): 6.01
- mean nematode size ln(EXT) (ln) ([3]; 5 µM): 6
- mean nematode size ln(EXT) (ln) ([3]; 10 µM): 6.02
- mean nematode size ln(EXT) (ln) ([3]; 50 µM): 6.1
- mean nematode size ln(EXT) (ln) ([3]; 100 µM): 6.11
- mean nematode size ln(EXT) (ln) ([3]; 200 µM): 3.65

Structure (SMILES): C[Si]1(C)O[Si](C)(C)O[Si](C)(C)O[Si](C)(C)O1 [Octamethylcyclotetrasiloxane]
- lowest effective concentration [1]: 200 µM
- AC50 for larval growth inhibition [2]: 183 µM
- mean nematode size ln(EXT) (ln) ([3]; 0.5 µM): 5.99
- mean nematode size ln(EXT) (ln) ([3]; 1 µM): 5.98
- mean nematode size ln(EXT) (ln) ([3]; 5 µM): 5.96
- mean nematode size ln(EXT) (ln) ([3]; 10 µM): 5.97
- mean nematode size ln(EXT) (ln) ([3]; 50 µM): 5.98
- mean nematode size ln(EXT) (ln) ([3]; 100 µM): 6.05
- mean nematode size ln(EXT) (ln) ([3]; 200 µM): 4.48

Structure (SMILES): CC/C(=N\OC/C=C/Cl)C1=C(O)CC(C2CCOCC2)CC1=O (stereo not given) [Tepraloxydim]
- lowest effective concentration [1]: 200 µM
- AC50 for larval growth inhibition [2]: > 200 µM
- mean nematode size ln(EXT) (ln) ([3]; 0.5 µM): 5.72
- mean nematode size ln(EXT) (ln) ([3]; 1 µM): 5.89
- mean nematode size ln(EXT) (ln) ([3]; 5 µM): 5.74
- mean nematode size ln(EXT) (ln) ([3]; 10 µM): 5.83
- mean nematode size ln(EXT) (ln) ([3]; 50 µM): 5.77
- mean nematode size ln(EXT) (ln) ([3]; 100 µM): 5.86
- mean nematode size ln(EXT) (ln) ([3]; 200 µM): 5.43

Structure (SMILES): CCCC1COC(Cn2cncn2)(c2ccc(Cl)cc2Cl)O1 (stereo not given) [Propiconazole]
- lowest effective concentration [1]: 200 µM
- AC50 for larval growth inhibition [2]: > 200 µM
- mean nematode size ln(EXT) (ln) ([3]; 0.5 µM): 6.02
- mean nematode size ln(EXT) (ln) ([3]; 1 µM): 6.09
- mean nematode size ln(EXT) (ln) ([3]; 5 µM): 6.16
- mean nematode size ln(EXT) (ln) ([3]; 10 µM): 6.21
- mean nematode size ln(EXT) (ln) ([3]; 50 µM): 5.95
- mean nematode size ln(EXT) (ln) ([3]; 100 µM): 5.93
- mean nematode size ln(EXT) (ln) ([3]; 200 µM): 5.05

Structure (SMILES): Cc1c2ccccc2c(C)c2c1ccc1ccccc12 [7,12-Dimethylbenz(a)anthracene]
- lowest effective concentration [1]: 5 µM
- AC50 for larval growth inhibition [2]: 110 µM
- mean nematode size ln(EXT) (ln) ([3]; 0.5 µM): 6.05
- mean nematode size ln(EXT) (ln) ([3]; 1 µM): 5.87
- mean nematode size ln(EXT) (ln) ([3]; 5 µM): 5.53
- mean nematode size ln(EXT) (ln) ([3]; 10 µM): 5.48
- mean nematode size ln(EXT) (ln) ([3]; 50 µM): 5.02
- mean nematode size ln(EXT) (ln) ([3]; 100 µM): 4.89
- mean nematode size ln(EXT) (ln) ([3]; 200 µM): 4

Structure (SMILES): CN(C)[C@@H]1C(=O)C(C(N)=O)=C(O)[C@@]2(O)C(=O)C3=C(O)c4c(O)cccc4[C@@](C)(O)[C@H]3[C@H](O)[C@@H]12 [Oxytetracycline dihydrate]
- lowest effective concentration [1]: 200 µM
- AC50 for larval growth inhibition [2]: > 200 µM
- mean nematode size ln(EXT) (ln) ([3]; 0.5 µM): 5.86
- mean nematode size ln(EXT) (ln) ([3]; 1 µM): 6.02
- mean nematode size ln(EXT) (ln) ([3]; 5 µM): 6.01
- mean nematode size ln(EXT) (ln) ([3]; 10 µM): 5.95
- mean nematode size ln(EXT) (ln) ([3]; 50 µM): 5.87
- mean nematode size ln(EXT) (ln) ([3]; 100 µM): 5.83
- mean nematode size ln(EXT) (ln) ([3]; 200 µM): 5.46

Structure (SMILES): CCNS(=O)(=O)C(F)(F)C(F)(F)C(F)(F)C(F)(F)C(F)(F)C(F)(F)C(F)(F)C(F)(F)F [Sulfluramid]
- lowest effective concentration [1]: 5 µM
- AC50 for larval growth inhibition [2]: 31.4 µM
- mean nematode size ln(EXT) (ln) ([3]; 0.5 µM): 5.81
- mean nematode size ln(EXT) (ln) ([3]; 1 µM): 5.84
- mean nematode size ln(EXT) (ln) ([3]; 5 µM): 5.48
- mean nematode size ln(EXT) (ln) ([3]; 10 µM): 5.23
- mean nematode size ln(EXT) (ln) ([3]; 50 µM): 4.32
- mean nematode size ln(EXT) (ln) ([3]; 100 µM): 4.08
- mean nematode size ln(EXT) (ln) ([3]; 200 µM): 3.24

Structure (SMILES): CC(c1ccc(O)cc1)(c1ccc(O)cc1)c1ccc(O)cc1 [4,4’,4"-Ethane-1,1,1-triyltriphenol]
- lowest effective concentration [1]: 100 µM
- AC50 for larval growth inhibition [2]: 79.3 µM
- mean nematode size ln(EXT) (ln) ([3]; 0.5 µM): 5.76
- mean nematode size ln(EXT) (ln) ([3]; 1 µM): 6.01
- mean nematode size ln(EXT) (ln) ([3]; 5 µM): 5.91
- mean nematode size ln(EXT) (ln) ([3]; 10 µM): 5.91
- mean nematode size ln(EXT) (ln) ([3]; 50 µM): 5.87
- mean nematode size ln(EXT) (ln) ([3]; 100 µM): 5.39
- mean nematode size ln(EXT) (ln) ([3]; 200 µM): 5.19

Structure (SMILES): CC(=O)[C@H]1CC[C@H]2[C@@H]3CCC4=CC(=O)CC[C@]4(C)[C@H]3CC[C@]12C [Progesterone]
- lowest effective concentration [1]: 200 µM
- AC50 for larval growth inhibition [2]: > 200 µM
- mean nematode size ln(EXT) (ln) ([3]; 0.5 µM): 5.84
- mean nematode size ln(EXT) (ln) ([3]; 1 µM): 5.84
- mean nematode size ln(EXT) (ln) ([3]; 5 µM): 5.86
- mean nematode size ln(EXT) (ln) ([3]; 10 µM): 5.9
- mean nematode size ln(EXT) (ln) ([3]; 50 µM): 5.72
- mean nematode size ln(EXT) (ln) ([3]; 100 µM): 5.95
- mean nematode size ln(EXT) (ln) ([3]; 200 µM): 5.58

Structure (SMILES): CCOP(=S)(Oc1ccc([N+](=O)[O-])cc1)c1ccccc1 (stereo not given) [O-Ethyl O-(p-nitrophenyl) phenylphosphonothioate]
- lowest effective concentration [1]: ≤ 0.5 µM
- AC50 for larval growth inhibition [2]: 6.09 µM
- mean nematode size ln(EXT) (ln) ([3]; 0.5 µM): 5.28
- mean nematode size ln(EXT) (ln) ([3]; 1 µM): 5.07
- mean nematode size ln(EXT) (ln) ([3]; 5 µM): 4.53
- mean nematode size ln(EXT) (ln) ([3]; 10 µM): 4.38
- mean nematode size ln(EXT) (ln) ([3]; 50 µM): 4.13
- mean nematode size ln(EXT) (ln) ([3]; 100 µM): 4.01
- mean nematode size ln(EXT) (ln) ([3]; 200 µM): 3.39

Structure (SMILES): c1ccc(NNc2ccccc2)cc1 [1,2-Diphenylhydrazine]
- lowest effective concentration [1]: 50 µM
- AC50 for larval growth inhibition [2]: 78.8 µM
- mean nematode size ln(EXT) (ln) ([3]; 0.5 µM): 5.81
- mean nematode size ln(EXT) (ln) ([3]; 1 µM): 5.72
- mean nematode size ln(EXT) (ln) ([3]; 5 µM): 5.71
- mean nematode size ln(EXT) (ln) ([3]; 10 µM): 5.69
- mean nematode size ln(EXT) (ln) ([3]; 50 µM): 5.22
- mean nematode size ln(EXT) (ln) ([3]; 100 µM): 4.11
- mean nematode size ln(EXT) (ln) ([3]; 200 µM): 3.42

Structure (SMILES): CC/C(=C(\c1ccccc1)c1ccc(OCCN(C)C)cc1)c1ccccc1 [Tamoxifen]
- lowest effective concentration [1]: 50 µM
- AC50 for larval growth inhibition [2]: 20.8 µM
- mean nematode size ln(EXT) (ln) ([3]; 0.5 µM): 5.79
- mean nematode size ln(EXT) (ln) ([3]; 1 µM): 5.76
- mean nematode size ln(EXT) (ln) ([3]; 5 µM): 5.65
- mean nematode size ln(EXT) (ln) ([3]; 10 µM): 5.67
- mean nematode size ln(EXT) (ln) ([3]; 50 µM): 3.84
- mean nematode size ln(EXT) (ln) ([3]; 100 µM): 3.93
- mean nematode size ln(EXT) (ln) ([3]; 200 µM): 3.53

Structure (SMILES): CC(C)(OO)c1ccccc1 [Cumene hydroperoxide]
- lowest effective concentration [1]: 200 µM
- AC50 for larval growth inhibition [2]: > 200 µM
- mean nematode size ln(EXT) (ln) ([3]; 0.5 µM): 5.92
- mean nematode size ln(EXT) (ln) ([3]; 1 µM): 5.91
- mean nematode size ln(EXT) (ln) ([3]; 5 µM): 5.94
- mean nematode size ln(EXT) (ln) ([3]; 10 µM): 5.75
- mean nematode size ln(EXT) (ln) ([3]; 50 µM): 5.88
- mean nematode size ln(EXT) (ln) ([3]; 100 µM): 5.75
- mean nematode size ln(EXT) (ln) ([3]; 200 µM): 5.62

Structure (SMILES): CC(C)(C)C(O)/C(=C/c1ccc(Cl)cc1Cl)n1cncn1 (stereo not given) [Diniconazole]
- lowest effective concentration [1]: 10 µM
- AC50 for larval growth inhibition [2]: 38.3 µM
- mean nematode size ln(EXT) (ln) ([3]; 0.5 µM): 5.97
- mean nematode size ln(EXT) (ln) ([3]; 1 µM): 5.84
- mean nematode size ln(EXT) (ln) ([3]; 5 µM): 5.68
- mean nematode size ln(EXT) (ln) ([3]; 10 µM): 5.59
- mean nematode size ln(EXT) (ln) ([3]; 50 µM): 4.97
- mean nematode size ln(EXT) (ln) ([3]; 100 µM): 3.98
- mean nematode size ln(EXT) (ln) ([3]; 200 µM): 4.28

Structure (SMILES): COP(=S)(OC)Oc1ccc(SC)c(C)c1 [Fenthion]
- lowest effective concentration [1]: 1 µM
- AC50 for larval growth inhibition [2]: 34.4 µM
- mean nematode size ln(EXT) (ln) ([3]; 0.5 µM): 5.69
- mean nematode size ln(EXT) (ln) ([3]; 1 µM): 5.64
- mean nematode size ln(EXT) (ln) ([3]; 5 µM): 5.43
- mean nematode size ln(EXT) (ln) ([3]; 10 µM): 5.36
- mean nematode size ln(EXT) (ln) ([3]; 50 µM): 5.09
- mean nematode size ln(EXT) (ln) ([3]; 100 µM): 5.11
- mean nematode size ln(EXT) (ln) ([3]; 200 µM): 4.92
